Results on one molecule are retold here after US4260682A, “High sensitivity assays for angiotensin converting enzyme” (priority 1979, dated 1981).

For experiment [1], the target named is T1, Guinea pig serum ACE (Cavia porcellus, UniProt H0UWL7).
T1 sequence (H0UWL7 33-1234): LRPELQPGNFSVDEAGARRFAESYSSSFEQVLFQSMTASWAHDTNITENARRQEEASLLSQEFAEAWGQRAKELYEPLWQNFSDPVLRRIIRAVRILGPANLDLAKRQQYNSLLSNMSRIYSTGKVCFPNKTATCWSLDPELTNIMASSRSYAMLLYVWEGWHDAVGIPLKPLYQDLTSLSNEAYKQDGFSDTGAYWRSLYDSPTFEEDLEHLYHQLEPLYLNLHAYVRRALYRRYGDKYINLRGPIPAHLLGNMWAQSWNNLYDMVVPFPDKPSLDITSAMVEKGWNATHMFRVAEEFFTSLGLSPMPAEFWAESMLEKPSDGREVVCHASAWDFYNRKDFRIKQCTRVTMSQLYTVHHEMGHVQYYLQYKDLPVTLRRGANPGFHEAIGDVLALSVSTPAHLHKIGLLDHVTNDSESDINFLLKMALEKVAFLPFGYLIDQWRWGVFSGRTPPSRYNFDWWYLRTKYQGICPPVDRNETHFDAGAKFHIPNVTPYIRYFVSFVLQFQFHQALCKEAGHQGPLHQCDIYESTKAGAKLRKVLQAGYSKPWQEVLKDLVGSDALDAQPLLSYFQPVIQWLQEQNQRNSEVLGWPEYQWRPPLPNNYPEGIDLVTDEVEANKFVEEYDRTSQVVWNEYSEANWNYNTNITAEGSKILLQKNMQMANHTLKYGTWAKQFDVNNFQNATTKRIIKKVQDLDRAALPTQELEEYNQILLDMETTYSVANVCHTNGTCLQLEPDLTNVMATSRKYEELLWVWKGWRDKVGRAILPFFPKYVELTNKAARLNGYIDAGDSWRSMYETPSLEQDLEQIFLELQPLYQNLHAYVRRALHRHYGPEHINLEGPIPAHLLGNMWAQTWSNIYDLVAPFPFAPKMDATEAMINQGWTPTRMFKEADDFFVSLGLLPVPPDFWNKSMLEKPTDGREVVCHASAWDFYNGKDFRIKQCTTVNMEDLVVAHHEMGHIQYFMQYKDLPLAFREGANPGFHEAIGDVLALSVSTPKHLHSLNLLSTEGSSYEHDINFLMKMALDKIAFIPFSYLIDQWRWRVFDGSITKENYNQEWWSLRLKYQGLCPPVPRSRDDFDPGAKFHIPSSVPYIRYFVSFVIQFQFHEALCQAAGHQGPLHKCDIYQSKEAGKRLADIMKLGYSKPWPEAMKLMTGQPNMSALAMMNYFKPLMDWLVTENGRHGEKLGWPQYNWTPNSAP
Briefly: Kinetics of (sulfate-stimulated) HipHisLeu hydrolysis. Format: biochemical. Conditions: for 1/V / V (reaction velocity): 0.1 M NaCl; for V (reaction velocity): 0.75 M Na2 SO4, pH 8.0, 37° C. As to the method:
Kinetics of Sulfate-Stimulated HipHisLeu Hydrolysis
In each assay, 50 μl of Guinea pig serum diluted 1-20 (v/v) in the reaction buffer was mixed with 50 μl of buffer containing sufficient ^3 H-HipHisLeu to provide approximately 100,000 cpm total, together with sufficient unlabeled HipHisLeu to produce the desired substrate concentrations, as indicated in Table 2. […] The reaction mixture was then extracted with 1 ml ethyl acetate. 500 μl of the ethyl acetate fraction was sampled and counted in a scintillation counter.

The test system of experiment [2] is ACE. The experiment can be described thus: pH dependence of ACE activity. It is filed as biochemical. The source says:
(§1) The enzyme is active over a broad pH range with a maximum around pH 8.0, but is at least about 50% active in the range pH 7.0-pH 8.8, for both HipHisLeu and benzoylPheAlaPro. Although the enzyme is active in a variety of buffer systems known in the art, it is preferred for convenience, when using benzoylPheAlaPro as substrate, to conduct the assays in 0.05 M Hepes buffer, pH 8.0 containing 0.15 M sodium chloride. Detailed protocols for carrying out the assay are given in the examples. […] The preferred concentration range is 1×10^-9 M to 7×10^- 5 M.

For experiment [3], the system named is ACE. Briefly: Sulfate and chloride effects on ACE catalysed hydrolysis (general description). Format: biochemical. The following applies: sulfate present.
Description: An assay for ACE, using HipHisLeu as substrate, is herewith described. The assay is more sensitive than any heretofore disclosed using HipHisLeu as substrate. Maximum sensitivity is achieved by the inclusion of sulfate ions, preferably as sodium sulfate, in the reaction mixture. When 0.1 M NaCl is present in the reaction mixture, sulfate ions are stimulatory from 0.1 M to at least 1.1 M. Maximum stimulation occurs in the range from 0.75 M to 1.1 M Na2 SO4.
An even more sensitive assay for ACE activity has been developed using the novel compound ^3 H-benzoylPheAlaPro as substrate. This new substrate can be used to assay ACE in human urine in incubations as short as 15 minutes. The response of this substrate to ions is strikingly different from the response of HipHisLeu. […] This difficulty has been solved by the proper choice of extracting solvent. While a variety of organic solvents may be suitable for the extraction step, it is preferred to employ toluene. Approximately 88% of ^3 H-benzoylPhe enters the toluene phase while only 6% of the unhydrolyzed substrate enters the toluene phase, when toluene and the acidified reaction mixture are in approximately equal volumes at room temperatures.
as §1

In experiment [4] the test system is ACE from rabbit lung. Conditions: sodium chloride removed from reaction medium; cited from earlier work.

Each structure is given as a SMILES string. Peptide text beside a SMILES is read from it. * marks the point of attachment. Bz = O=C(c1ccccc1)*

Take `CC(C)C[C@H](NC(=O)[C@H](Cc1c[nH]cn1)NC(=O)CNC(=O)c1ccccc1)C(=O)O` [HipHisLeu] (Bz-Gly-His-Leu-OH): the Vmax in experiment [1] (0.05 M Hepes, pH 8.0, 0.1 M NaCl, 0.75 M Na2 SO4, serum diluted 1-20) amounted to 5.59 nmol/min/mL. Besides, in experiment [1] (0.75 M Na2 SO4 in reaction mixture containing 0.1 M NaCl), the “reduction of Km” value is “about 15 fold”. Further, the 1/V was 3.33 nmole^-1 · min .multi in experiment [1] (HipHisLeu 0.01 mM, 0.75 M Na2 SO4); 1.92 nmole^-1 · min .multi in experiment [1] (HipHisLeu 0.02 mM, 0.75 M Na2 SO4); 1.35 nmole^-1 · min .multi in experiment [1] (HipHisLeu 0.03 mM, 0.75 M Na2 SO4); 0.78 nmole^-1 · min .multi in experiment [1] (HipHisLeu 0.04 mM, 0.75 M Na2 SO4); 0.88 nmole^-1 · min .multi in experiment [1] (HipHisLeu 0.05 mM, 0.75 M Na2 SO4); 0.78 nmole^-1 · min .multi in experiment [1] (HipHisLeu 0.06 mM, 0.75 M Na2 SO4). Further, the 1/V in experiment [1] (HipHisLeu 0.07 mM, 0.75 M Na2 SO4) came to 0.47 nmole^-1 · min .multi; in experiment [1] (HipHisLeu 0.08 mM, 0.75 M Na2 SO4), 0.57 nmole^-1 · min .multi. The “V (reaction velocity)” value worked out at 0.30 nmol/min/mL in experiment [1] (HipHisLeu 0.01 mM); 0.52 nmol/min/mL in experiment [1] (HipHisLeu 0.02 mM); 0.74 nmol/min/mL in experiment [1] (HipHisLeu 0.03 mM); 1.28 nmol/min/mL in experiment [1] (HipHisLeu 0.04 mM); 1.14 nmol/min/mL in experiment [1] (HipHisLeu 0.05 mM); 1.28 nmol/min/mL in experiment [1] (HipHisLeu 0.06 mM). The “V (reaction velocity)” value worked out at 2.14 nmol/min/mL in experiment [1] (HipHisLeu 0.07 mM) and 1.76 nmol/min/mL in experiment [1] (HipHisLeu 0.08 mM). Also, the “decrease in Km” value in experiment [1] (sulfate ion 0.75-1.1 M vs. without) was 14 fold. Further, the “pH of maximum activity” value in experiment [2] is around 8.0 pH. Moreover, the “activity of enzyme (relative to maximum)” value in experiment [2] (range pH 7.0-pH 8.8) is given as “at least 50%”. In addition, in experiment [3], the “dependence of hydrolysis on added chloride” value is “can be carried out in the absence of added chloride, if sulfate is present”. For the same molecule, the “inhibition on removal of sodium chloride” value in experiment [4] is recorded as 92%.
